Like-named read-outs stand apart in the source and are kept apart here.
Columns and labels:
[1] = system: MCF7 cells (PI3Kα mutant E545K); assay: Cell viability / antiproliferative assay in MCF7 cells (Example 903); format: cell-based; details: Homo sapiens, MCF7, 96 h, read-out: MCF7 antiproliferative EC50
Protocol: (§1) Cells were seeded (1,500 per well) in 384-well plates for 16 h. On day 2, nine serial 1:3 compound dilutions were made in DMSO in a 96-well plate. The compounds were then further diluted into growth media using a Rapidplate robot (Zymark Corp.). […] After 4 d, relative numbers of viable cells were measured by luminescence using Cell Titer-Glo (Promega) according to the manufacturer's instructions and read on a Wallac Multilabel Reader (Perkin-Elmer). EC50 values were calculated using Prism 6.0 software (GraphPad).

[2] = system: HCC1954 cells (PI3Kα mutant H1047R); assay: Cell viability / antiproliferative assay in HCC1954 cells (Example 903); details: Homo sapiens, HCC1954, 96 h, read-out: HCC1954 antiproliferative EC50
Protocol: as §1

[3] = system: SW48 (H1047R) PI3Kα mutant cells, P-PRAS40; assay: Inhibition of P-PRAS40 in SW48 isogenic cells, kinase domain mutant H1047R (Example 902); details: Homo sapiens, SW48, 24 h, read-out: P-PRAS40 SW48 (H1047R) EC50
[4] = system: HDQ-P1 (PI3Kα wild-type), p-PRAS40; assay: p-PRAS40 MSD assay in HDQ-P1 cells (Example 907); details: Homo sapiens, HDQ-P1, 24 h, read-out: P-PRAS40 HDQ-P1 MSD EC50
Protocol: (§2) The following day, cells are treated with compounds and incubated for 24 hours. […] The HCC1954 cell line expresses mutant PI3Kα (E545K) vs WT in HDQP1.
(§3) The MSD platform provides a method of measuring the phosphorylated levels of pPRAS40 in a single sample. […] Following cell lysis, PRAS40 in samples is allowed to bind to the capture antibodies.
(§4) Procedure: • Compounds prepared at concentration of 2 mM in DMSO.
(§5) Day 1: Cell Plating • 1. Seed 12.500 cells in 45 ul medium for each cell line. Allow cells to settle/attach to plate for 15-20 min at room temperature. • 2. Incubate cells overnight in a 37° C. humidity and CO2 controlled incubator.
(§6) Day 2: Compound Plate Preparation and Compound Treatment • 1. For the 10× intermediate dilution plate: add 95 ul serum-free media into a standard profile greiner 384 well polypropylene plate. • 2. Use biomek Fx protocol for intermediate compound dilution in media and addition to cells: “SLS Intermed Dil Add 5 ul to Cells Jul. […] The method then transfers 5 ul from the intermediate dilution plate to the appropriate cell plate. • 3. Incubate the treated cells at 37 degrees for 24 hours in a 5% CO2 humidified incubator.
(§7) Block the MSD assay plate with 50 ul 3% Blocker A/1×MSD Wash Buffer 1-2 hr at room temp. […] Blocking buffer A contains 1×MSD wash buffer. 20 mL 1× Tris Wash buffer and 600 mg Blocker A.
(§8) Aspirate Media and Lyse the Cells • 1. Lyse the cells in 50 μl lysis buffer. Lyse at room temperature for 10-20 minutes on plate shaker. • 2. While cells are lysing, wash blocked plates 1×MSD wash buffer. • 3. Transfer 42 ul lysates (21+21 μL) to a blocked MSD pPRAS40 assay plate. • 4. Seal MSD plates and incubate at 4° C. with shaking overnight.
(§9) Day 4: MSD Assay/Detection • 8. Make a solution of 1% Blocker A in 1×MSD wash buffer. (20 mL 1× Tris Wash buffer and 200 mg Blocker A (1% w/v). This solution can be stored at 4° C. for up to one month. • 9. Wash the MSD plates with 1×MSD wash buffer. • 10. Add 10 μl of the diluted SULFO-TAG detection antibody to the plates. Incubate for 1 hr with shaking at room temp.
(§10) Wash the plates 4× with 1×MSD wash buffer. • 12. Add 35 μl 1× Read buffer with reverse pipetting to avoid bubbles. • 13. Read the plate immediately on the MSD SECTOR instrument.

[5] = Multiple day oral dosing in dogs (exposure, clinical and anatomic pathology); format: in vivo, Beagle dogs; details: for concentration at 14 day / Cmax / AUC(0-t): Beagle, plasma; for concentration at 14 day / Cmax / AUC(0-t) / Cmax D14, free / Exposure AUC0-24 hr, D14, free / Exposure multiples (free, AUC) / Exposure multiples (total, AUC) / Exposure multiples to CD69 IC50 (total, Cmin): dog; for concentration at 14 day: oral, read-out: Cmin D14, total; for Cmax / AUC(0-t): po; for Cmax: read-out: Cmax D14, total; for AUC(0-t): read-out: Exposure AUC0-24 hr, D14, total; for Exposure multiples (free, AUC) / Exposure multiples (total, AUC): vs TGI60 from 21-day HCC1954 TGI study; for Exposure multiples to CD69 IC50 (total, Cmin): whole-blood CD69 IC50 = 142 nM
From the text: The extent and severity of findings is consistent with increased inhibition of PI3Kδ (delta) at exposure multiples over CD69 IC50 for the comparator compounds.

[6] = system: HCC1954 (PI3Kα mutant H1047R), p-PRAS40; assay: p-PRAS40 MSD assay in HCC1954 cells (Example 907); details: Homo sapiens, HCC1954, 24 h, read-out: P-PRAS40 HCC1954 MSD EC50
Protocol: as §2, §3, §4, §5, §6, §7, §8, §9, §10

p110α = p110α (Homo sapiens (Human), UniProt P42336, H1047R); assay: p110α degradation, Western blot in HCC1954 and HDQ-P1 cells after 24 hour treatment (Example 905); format: cell-based; details: HCC1954 (PI3Kα mutant H1047R) vs. HDQ-P1 (PI3Kα wild-type)
Protocol: Cell lines were grown under standard tissue culture conditions in RPMI media with 10% fetal bovine serum, 100 U/mL penicillin, and 100 μg/mL streptomycin.

PI3Kα = PI3Kα (Homo sapiens (Human), UniProt P42336); assay: Biochemical inhibition of PI3K alpha (ADP-Glo lipid kinase assay, Example 901); details: geometric mean of minimum three experiments unless footnoted
Protocol: Reactions are carried out using the following conditions for each PI3K isoform as in Table 5.
All reactions are carried out at room temperature. […] The reaction is started by the addition of 2 μl ATP/MgCl2. The kinase reaction buffer contains 50 mM HEPES, 50 mM NaCl 3 mM MgCl2, 0.01% BSA, 1% DMSO, and enzyme and substrate concentrations as indicated in the above table. The reaction is stopped by the addition of 10 μL ADP-Glo reagent. Plates are read in a Perkin Elmer Envision system using luminescence mode. 10 point dose response curves are generated for each test compound. Ki values for each compound are determined using the Morrison Equation.

[7] = system: SW48 (parental) PI3Kα wild-type cells, P-PRAS40; assay: Inhibition of P-PRAS40 in SW48 isogenic cells, PI3Kα wild-type parental (Example 902); details: Homo sapiens, SW48, 24 h, read-out: P-PRAS40 SW48 (parental) EC50
[8] = system: CD69 expression in CD19+ CD27− B cells; assay: B-cell a-IgM CD69 expression, human whole blood assay (Example 906); format: cell-based
Protocol: The expression of CD69 in B-cells resultant from a-IgM treatment is believed to be driven by signaling through PI3Kδ (delta).
Human whole blood was dispensed into 96-deep well plates at 100 μl per well. Compounds were diluted in DMSO to generate the desired stock concentrations and then further diluted in PBS to the desired working concentration and added in a volume of 5.5 μL per well. Samples were then incubated for 1 hour at 37° C. under 5% CO2 before the addition of 5 μg (10 μl per well) of Goat anti IgM F(ab′)2 (Southern Biotech, AL), and incubated for 18 hours at 37° C. under 5% CO2. All treatments were tested in duplicate.
In addition, human whole blood from each donor was stained with isotype-matched fluorescent control antibodies. After the addition of the appropriate antibody cocktail the whole blood samples were stained for 30 minutes in the dark and then lysed using BD Pharm Lysis (BD Bioscience, NJ). The resulting samples were then washed with FACS Buffer (Phosphate Buffered Saline (Ca:Mg++ free), 1 mM EDTA, 25 mM HEPES pH 7.0, 1% Fetal Bovine Serum (Heat-Inactivated) and fixed in FACS Buffer supplemented with 0.1% Formaldehyde (Polysciences Inc, PA) and 0.1% Pluronic F-68 (Sigma, MO). Data were acquired using a BD LSR-II (BD Biosciences) with BD FACSDiva software.
Cells were assessed by flow cytometry for levels of CD19, CD27 and CD69 using BD FACSDiva Software and the CD69 MFI-Mean of the CD19^+ CD27^− lymphocyte population was determined.

[9] = system: SW48 (E545K) PI3Kα mutant cells, P-PRAS40; assay: Inhibition of P-PRAS40 in SW48 isogenic cells, helical domain mutant E545K (Example 902); details: Homo sapiens, SW48, 24 h, read-out: P-PRAS40 SW48 (E545K) EC50
[10] = Unbound fraction in mouse plasma (Fu); format: in vitro ADME; details: read-out: Fu mouse (unbound fraction in species plasma)
[11] = Unbound fraction in dog plasma (Fu); format: in vitro ADME; details: read-out: Fu dog (unbound fraction in species plasma)

p110α, sequence (P42336 whole entry H1047R): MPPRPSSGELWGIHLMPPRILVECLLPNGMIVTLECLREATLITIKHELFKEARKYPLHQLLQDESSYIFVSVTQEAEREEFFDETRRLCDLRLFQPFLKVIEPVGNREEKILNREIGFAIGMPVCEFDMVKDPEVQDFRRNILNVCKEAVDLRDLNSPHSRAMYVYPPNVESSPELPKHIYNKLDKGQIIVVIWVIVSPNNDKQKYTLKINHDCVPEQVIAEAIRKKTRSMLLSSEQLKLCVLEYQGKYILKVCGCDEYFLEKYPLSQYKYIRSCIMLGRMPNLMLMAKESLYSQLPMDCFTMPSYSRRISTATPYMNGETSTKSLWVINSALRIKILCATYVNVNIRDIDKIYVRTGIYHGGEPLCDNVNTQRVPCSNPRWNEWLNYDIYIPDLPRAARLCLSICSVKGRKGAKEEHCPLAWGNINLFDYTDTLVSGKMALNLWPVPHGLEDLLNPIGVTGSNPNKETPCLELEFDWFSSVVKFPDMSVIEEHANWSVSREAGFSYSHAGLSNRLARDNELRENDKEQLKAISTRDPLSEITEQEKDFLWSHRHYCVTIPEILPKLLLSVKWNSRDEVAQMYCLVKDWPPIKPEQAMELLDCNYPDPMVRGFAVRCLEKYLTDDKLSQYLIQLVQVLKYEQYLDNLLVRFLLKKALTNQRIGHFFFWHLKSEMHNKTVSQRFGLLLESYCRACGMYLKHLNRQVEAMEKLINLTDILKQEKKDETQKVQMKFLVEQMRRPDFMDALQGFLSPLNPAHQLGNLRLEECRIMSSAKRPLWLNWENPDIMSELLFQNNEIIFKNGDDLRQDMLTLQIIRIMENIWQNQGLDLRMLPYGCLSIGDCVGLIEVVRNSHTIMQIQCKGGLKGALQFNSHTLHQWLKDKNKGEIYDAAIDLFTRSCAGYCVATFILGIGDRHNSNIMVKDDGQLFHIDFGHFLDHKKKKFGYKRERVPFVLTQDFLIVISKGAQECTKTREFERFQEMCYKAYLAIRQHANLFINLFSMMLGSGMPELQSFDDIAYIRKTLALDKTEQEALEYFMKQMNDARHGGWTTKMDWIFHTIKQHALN
p110α, sequence (P27986 whole entry partner): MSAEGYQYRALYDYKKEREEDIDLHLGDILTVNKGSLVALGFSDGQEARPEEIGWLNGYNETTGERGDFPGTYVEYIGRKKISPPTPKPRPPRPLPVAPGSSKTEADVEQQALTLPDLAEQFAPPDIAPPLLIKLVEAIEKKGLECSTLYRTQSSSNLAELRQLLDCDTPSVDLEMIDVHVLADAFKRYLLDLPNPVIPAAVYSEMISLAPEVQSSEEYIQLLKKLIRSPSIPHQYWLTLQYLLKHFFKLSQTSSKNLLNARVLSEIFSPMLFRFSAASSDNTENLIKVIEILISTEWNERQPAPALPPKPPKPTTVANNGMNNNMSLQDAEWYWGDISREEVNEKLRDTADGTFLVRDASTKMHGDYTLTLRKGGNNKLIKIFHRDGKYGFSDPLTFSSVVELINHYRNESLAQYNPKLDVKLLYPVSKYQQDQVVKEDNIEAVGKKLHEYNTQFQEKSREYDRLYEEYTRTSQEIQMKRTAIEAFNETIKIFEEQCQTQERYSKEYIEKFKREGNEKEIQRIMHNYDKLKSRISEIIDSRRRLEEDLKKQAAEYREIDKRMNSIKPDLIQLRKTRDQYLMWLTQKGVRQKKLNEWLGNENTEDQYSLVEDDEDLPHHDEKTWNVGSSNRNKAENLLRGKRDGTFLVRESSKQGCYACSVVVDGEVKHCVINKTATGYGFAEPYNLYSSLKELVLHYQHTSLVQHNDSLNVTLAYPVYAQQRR
PI3Kα, sequence (P42336 whole entry, canonical isoform): as the sequence (P42336 whole entry H1047R) above, with R1047H counted along it
PI3Kα, sequence (P27986 whole entry partner, canonical isoform): as the sequence (P27986 whole entry partner) above

NC(=O)[C@@H](Nc1ccc2c(c1)OCCn1cc(N3C(=O)OC[C@H]3C(F)F)nc1-2)C1CC1 [Compound 103, (S)-2-Cyclopropyl-2-((2-((S)-4-(difluoromethyl)-2-oxooxazolidin-3-yl)-5,6-dihydrobenzo[f]imidazo[1,2-d][1,4]oxazepin-9-yl)amino)acetamide]
EC50 [1]: 30 nM
EC50 [2]: 70 nM
EC50 [3]: 3.8 nM
EC50 [4]: 155 nM
concentration at 14 day ([5]; 0.1 mg/kg/day): 4.8 nM
concentration at 14 day ([5]; 0.3 mg/kg/day): 11 nM
concentration at 14 day ([5]; 1 mg/kg/day): 34 nM
Cmax ([5]; 0.1 mg/kg/day): 40 nM
AUC(0-t) ([5]; 0.1 mg/kg/day): 0.27 µM·h
Cmax ([5]; 0.3 mg/kg/day): 130 nM
AUC(0-t) ([5]; 0.3 mg/kg/day): 0.9 µM·h
Cmax ([5]; 1 mg/kg/day): 310 nM
AUC(0-t) ([5]; 1 mg/kg/day): 2.54 µM·h
Cmax D14, free ([5]; Compound 103 0.1 mg/kg/day QD): 20 nM
Exposure AUC0-24 hr, D14, free ([5]; Compound 103 0.1 mg/kg/day QD): 0.14 µM·h
Exposure multiples (free, AUC) ([5]; Compound 103 0.1 mg/kg/day QD): 4.7 ×
Exposure multiples (total, AUC) ([5]; Compound 103 0.1 mg/kg/day QD): 0.2 ×
Exposure multiples to CD69 IC50 (total, Cmin) ([5]; Compound 103 0.1 mg/kg/day QD): 0.03×
Cmax D14, free ([5]; Compound 103 0.3 mg/kg/day QD): 66 nM
Exposure AUC0-24 hr, D14, free ([5]; Compound 103 0.3 mg/kg/day QD): 0.46 µM·h
Exposure multiples (free, AUC) ([5]; Compound 103 0.3 mg/kg/day QD): 15 ×
Exposure multiples (total, AUC) ([5]; Compound 103 0.3 mg/kg/day QD): 0.8 ×
Exposure multiples to CD69 IC50 (total, Cmin) ([5]; Compound 103 0.3 mg/kg/day QD): 0.08×
Cmax D14, free ([5]; Compound 103 1 mg/kg/day QD): 160 nM
Exposure AUC0-24 hr, D14, free ([5]; Compound 103 1 mg/kg/day QD): 1.29 µM·h
Exposure multiples (free, AUC) ([5]; Compound 103 1 mg/kg/day QD): 43 ×
Exposure multiples (total, AUC) ([5]; Compound 103 1 mg/kg/day QD): 2.2 ×
Exposure multiples to CD69 IC50 (total, Cmin) ([5]; Compound 103 1 mg/kg/day QD): 0.2×
Lymphoid depletion (summary) ([5]; multiple-day dosing in Beagle dogs (7-14 days), high exposure multiples): only minor amounts of lymphoid depletion at high exposure multiples
Pro-inflammatory signature (clinical pathology or anatomic pathology evaluation) ([5]; multiple-day dosing in Beagle dogs (7-14 days), 101 and 103 at >5-fold free exposure multiples over TGI60): do not promote a pro-inflammatory signature
EC50 [6]: 28 nM
p110α levels (Western blot) (p110α): promote reduction of p110α levels selectively in PI3K mutant
Ki (PI3Kα): 0.06 nM
EC50 [7]: 10.1 nM
IC50 ([8]; Homo sapiens, whole-blood, uncorrected, read-out: a-IgM stimulated CD69 expression (whole-blood) IC50): 142 nM
IC50 ([8]; human whole-blood IC50 multiplied by measured human fu, read-out: B-cell a-IgM CD69 expression IC50, plasma-protein-binding corrected): 76 nM
EC50 [9]: 4.1 nM
fraction unbound [10]: 0.03
fraction unbound [11]: 0.507

Reference: patent US10112932B2, “Benzoxazepin oxazolidinone compounds and methods of use” (Genentech, Inc., priority 2015, dated 2018)
